Source: patent publication EP4596537A1, “NOVEL FLUORENE DERIVATIVE COMPOUND AND USE THEREOF” (JD Bioscience Inc., priority 2022, dated 2024)

What follows are molecules tested on PDHE1α S293 (assay: In vitro PDH S293 phosphorylation inhibition (Western blot) in HEK293 cells). Conditions: Homo sapiens, 5 hours.
Assay type: cell-based, human
Method: HEK293 cells, which are human embryonic kidney cells, were seeded at a density of 2 × 10^6 in a 60 mm dish, and cultured for 24 hours. After replacing the medium with a medium comprising 0.5% FBS, the compounds prepared according to Examples 1 to 54 were treated at various concentrations. 5 hours later, the cells were scraped off and collected into a 15 mL conical tube and centrifuged at 1500 rpm for 10 minutes. The supernatant was discarded, the resultant was washed with 1× PBS, and transferred to a 1.5 mL e-tube, followed by centrifugation at 10,000 rpm for 5 minutes. The supernatant was discarded again, a lysis buffer was added, and the cells were lysed on ice for 30 minutes. The cells were vortexed every 10 minutes to completely lyse, and centrifuged again at 10,000 rpm for 15 minutes at 4°C, and the supernatant was collected. The protein in the supernatant was quantified using BCA technique, and the sample buffer was added to 20 µg of protein and allowed to react at 70°C for 5 minutes. The expression of PDHE1α S232, S293, S300, and total PDHE1α proteins was detected by Western blot, and the resulting PDH S293 phosphorylation inhibition is shown in Table 6. […]
Molecule CC(C(=O)NNc1ccncc1)n1cc(-c2cc(F)cc3c2-c2ccccc2C3(O)C(F)(F)F)cn1 (stereo not drawn) [Example 34, 2-(4-(2-fluoro-9-hydroxy-9-(trifluoromethyl)-9H-fluoren-4-yl)-1H-pyrazol-1-yl)-N'-(pyridin-4-yl)propanehydrazide] has an inhibition at 1 µM of at least 50%. In the case of CC(C(=O)NNc1cccc2ccccc12)n1cc(-c2cc(F)cc3c2-c2ccccc2C3(O)C(F)(F)F)cn1 (stereo not drawn) [Example 5, 2-(4-(2-fluoro-9-hydroxy-9-(trifluoromethyl)-9H-fluoren-4-yl)-1H-pyrazol-1-yl)-N'-(naphthalen-1-yl)propanehydrazide], the inhibition at 1 µM is reported as at least 50%. Molecule O=C(Cn1cc(-c2cc(F)cc3c2-c2ccccc2C3(O)C(F)(F)F)cn1)NNc1ccccn1 (stereo not drawn) [Example 18, 2-(4-(2-fluoro-9-hydroxy-9-(trifluoromethyl)-9H-fluoren-4-yl)-1H-pyrazol-1-yl)-N'-(pyridin-2-yl)acetohydrazide] has an inhibition at 1 µM of at least 80%. Molecule CC(C(=O)NNc1ccccc1F)n1cc(-c2cc(F)cc3c2-c2ccccc2C3(O)C(F)(F)F)cn1 (stereo not drawn) [Example 13, 2-(4-(2-fluoro-9-hydroxy-9-(trifluoromethyl)-9H-fluoren-4-yl)-1H-pyrazol-1-yl)-N'-(2-fluorophenyl)propanehydrazide] has an inhibition at 1 µM of at least 50%. C[C@@H](C(=O)NNc1ccc(F)cc1)n1cc(-c2cc(F)cc3c2-c2ccccc2[C@]3(O)C(F)(F)F)cn1 [Example 50, (S)-2-(4-((R)-2-fluoro-9-hydroxy-9-(trifluoromethyl)-9H-fluoren-4-yl)-1H-pyrazol-1-yl)-N'-(4-fluorophenyl)propanehydrazide] was tested, and the inhibition at 1 µM was at least 50%. C[C@H](C(=O)NNc1ccc(F)cc1)n1cc(-c2cc(F)cc3c2-c2ccccc2[C@@]3(O)C(F)(F)F)cn1 [Example 51, (R)-2-(4-((S)-2-fluoro-9-hydroxy-9-(trifluoromethyl)-9H-fluoren-4-yl)-1H-pyrazol-1-yl)-N'-(4-fluorophenyl)propanehydrazide] showed an inhibition at 1 µM of at least 50%. CC(C(=O)NNc1ccc(S(C)(=O)=O)cc1F)n1cc(-c2cc(F)cc3c2-c2ccccc2C3(O)C(F)(F)F)cn1 (stereo not drawn) [Example 3, N'-(2-fluoro-4-(methylsulfonyl)phenyl)-2-(4-(2-fluoro-9-hydroxy-9-(trifluoromethyl)-9H-fluoren-4-yl)-1H-pyrazol-1-yl)propanehydrazide] was tested, and the inhibition at 1 µM was at least 50%. Molecule COc1cc(-c2cnn(C(C)C(=O)NNc3ccc(C(=O)O)cn3)c2)c2c(c1)C(O)(C(F)(F)F)c1ccccc1-2 (stereo not drawn) [Example 16, 6-(2-(2-(4-(9-hydroxy-2-methoxy-9-(trifluoromethyl)-9H-fluoren-4-yl)-1H-pyrazol-1-yl)propanoyl)hydrazinyl)nicotinic acid] has an inhibition at 1 µM of at least 50%. Work on CCC(C(=O)NNc1ccc(F)cc1)n1cc(-c2cc(F)cc3c2-c2ccccc2C3(O)C(F)(F)F)cn1 (stereo not drawn) [Example 43, 2-(4-(2-fluoro-9-hydroxy-9-(trifluoromethyl)-9H-fluoren-4-yl)-1H-pyrazol-1-yl)-N'-(4-fluorophenyl)butanehydrazide] yielded an inhibition at 1 µM of at least 50%. With CC(C(=O)NNc1ccccc1)n1cc(-c2cc(F)cc3c2-c2ccccc2C3(O)C(F)(F)F)cn1 (stereo not drawn) [Example 4, 2-(4-(2-fluoro-9-hydroxy-9-(trifluoromethyl)-9H-fluoren-4-yl)-1H-pyrazol-1-yl)-N'-phenylpropanehydrazide] the inhibition at 1 µM was at least 80%. Work on COc1cc(-c2cnn(C(C)C(=O)NNc3ccccc3Cl)c2)c2c(c1)C(O)(C(F)(F)F)c1ccccc1-2 (stereo not drawn) [Example 12, N'-(2-chlorophenyl)-2-(4-(9-hydroxy-2-methoxy-9-(trifluoromethyl)-9H-fluoren-4-yl)-1H-pyrazol-1-yl)propanehydrazide] yielded an inhibition at 1 µM of at least 50%. For COc1cc(-c2cnn(C(C)C(=O)NNc3ccc(C(F)(F)F)cn3)c2)c2c(c1)C(O)(C(F)(F)F)c1ccccc1-2 (stereo not drawn) [Example 27, 2-(4-(9-hydroxy-2-methoxy-9-(trifluoromethyl)-9H-fluoren-4-yl)-1H-pyrazol-1-yl)-N'-(5-(trifluoromethyl)pyridin-2-yl)propanehydrazide], the inhibition at 1 µM was at least 50%.
